From US20090314217A1, “APPARATUS AND METHOD FOR TREATING NON-HUMAN MAMMALS” (Under The Boardwalk Properties 8 (Proprietary) Limited, priority 2006, published 2009)

Columns and labels:
[1] = Blood oxygen tests immediately before and after transdermal ozone therapy (Table 2); assay type: in vivo, horse; conditions: for PO2 / SO2: post-treat (immediately after therapy); for K+ blood concentration / Na+ blood concentration: post-treat; for K+ blood concentration: normal range 5.3-3.0; for Na+ blood concentration: normal range 150.0-133.0
Procedure: Blood tests were also conducted for three horses to determine when transdermal ozone therapy should be provided. The horses were Shamon, Pauli and Sinbad. The blood tests were conducted immediately before transdermal ozone therapy and immediately thereafter. For the horse Shamon, blood tests were also conducted 12 hours and 24 hours after transdermal ozone therapy.

[2] = Blood tests on the horses on the days of the race (Table 1); assay type: in vivo, horse; conditions: for PCT: day 1 value 0.04; for MON = monocytes: day 1 value 0.57; for LYM = lymphocytes: day 1 value 1.80; for K+ = potassium / MON % = monocytes percentage: day 1 value 4.4; for GLU = glucose: day 1 value 4.7; for RBC = red blood cell count: day 1 value 10.2; for GRA = granulocytes: day 1 value 10.5; for WBC = white blood cell count: day 1 value 12.8; for LY % = lymphocytes percentage: day 1 value 14.0; for MCH = mean corpuscular hemoglobin: day 1 value 15.1; for HB = hemoglobin: day 1 value 15.5; for RDWc: day 1 value 22.5; for PDW: day 1 value 32.6; for TBIL = total biliruben: day 1 value 37; for MCV = mean corpuscular volume: day 1 value 38; for MCHC = mean corpuscular hemoglobin concentration: day 1 value 40.0; for GLOB = globulin: day 1 value 43; for TP = total protein: day 1 value 79; for GR % = granulocytes percentage: day 1 value 81.6; for PLT = platelets: day 1 value 83; for Na+ = sodium: day 1 value 139
Procedure: The apparatus 10 was used in a confidential trial to treat five horses taking part in an endurance race. The five horses were called Moniq, Shamon, Pauli, Viola and Ophelia. During treatment, the average temperature inside the enclosure 22 was between 42° C. and 45° C. and an oxygen flow rate of 1 l/min was supplied to the ozonator 52. During treatment, the average heart-rate for the non-accustomed horses was 42 beats per minute. The superficial skin temperature measured on the neck and the point of the shoulder of the horses was 39° C. in each case.
Table 1 provides information on the blood tests conducted on the five horses, on the days of the race as indicated.

[3] = horse Moniq, race day 2, treated days 1 and 2
[4] = horse Moniq, race day 3, treated days 1 and 2
[5] = horse Pauli, race day 2, pre-treated before race

O=[O+][O-] [ozone]
PO2 ([1]; horse Pauli, pre-treat 39.30): 49.20 mmHg
SO2 ([1]; horse Pauli, pre-treat 80.30): 87.10%
K+ blood concentration ([1]; horse Pauli, pre-treat 3.73): 4.37 mmol/L
Na+ blood concentration ([1]; horse Pauli, pre-treat 143.00): 144.30 mmol/L
PO2 ([1]; horse Shamon, pre-treat 40.00): 52.70 mmHg
SO2 ([1]; horse Shamon, pre-treat 74.60): 90.50%
K+ blood concentration ([1]; horse Shamon, pre-treat 3.41): 4.09 mmol/L
Na+ blood concentration ([1]; horse Shamon, pre-treat 136.00): 148.30 mmol/L
PO2 ([1]; horse Sinbad, pre-treat 35.90): 48.00 mmHg
SO2 ([1]; horse Sinbad, pre-treat 70.60): 86.40%
K+ blood concentration ([1]; horse Sinbad, pre-treat 3.49): 3.04 mmol/L
Na+ blood concentration ([1]; horse Sinbad, pre-treat 147.40): 150.20 mmol/L
dehydration effect of transdermal ozone therapy ([1]; horses Shamon, Pauli, Sinbad): no dehydration effect
Na+, K+ and Cl- blood concentrations versus normal ranges ([1]; horses Shamon, Pauli, Sinbad, before and after therapy): remained within normal ranges
PCT [2, 3]: 0.07%
MON = monocytes [2, 3]: 6e+07 L⁻¹
LYM = lymphocytes [2, 3]: 1.96e+09 L⁻¹
CA++ = calcium ([2]; horse Moniq, race day 2, treated days 1 and 2, day 1 value 2.98): 2.98 mmol/L
K+ = potassium [2, 3]: 4.3 mmol/L
MON % = monocytes percentage [2, 3]: 0.6%
GLU = glucose [2, 3]: 6.1 mmol/L
BUN = blood urea nitrogen ([2]; horse Moniq, race day 2, treated days 1 and 2, day 1 value 8): 9 mmol/L
RBC = red blood cell count [2, 3]: 9.21e+12 L⁻¹
GRA = granulocytes [2, 3]: 7.55e+09 L⁻¹
GGT = gamma glutamiel transferase ([2]; horse Moniq, race day 2, treated days 1 and 2, day 1 value 12): 11 Units/liter
WBC = white blood cell count [2, 3]: 9.56e+09 L⁻¹
LY % = lymphocytes percentage [2, 3]: 20.5%
MCH = mean corpuscular hemoglobin [2, 3]: 14.7 pg
HB = hemoglobin [2, 3]: 13.6 d/deciliter
RDWc [2, 3]: 22.2%
PDW [2, 3]: 37.2
ALB = albumin ([2]; horse Moniq, race day 2, treated days 1 and 2, day 1 value 36): 34 gram/liter
TBIL = total biliruben [2, 3]: 58 µmol/L
MCV = mean corpuscular volume [2, 3]: 37 femtoliter
MCHC = mean corpuscular hemoglobin concentration [2, 3]: 39.6 gram/deciliter
GLOB = globulin [2, 3]: 40 gram/liter
TP = total protein [2, 3]: 75 gram/liter
GR % = granulocytes percentage [2, 3]: 78.9%
PLT = platelets [2, 3]: 1.24e+11 L⁻¹
CRE = creatinine ([2]; horse Moniq, race day 2, treated days 1 and 2, day 1 value 96): 106 µmol/L
Na+ = sodium [2, 3]: 137 mmol/L
AST = aspertate amino transferase ([2]; horse Moniq, race day 2, treated days 1 and 2, day 1 value 468): 564 Units/liter
CK = creatine kinase ([2]; horse Moniq, race day 2, treated days 1 and 2, day 1 value 3873): 706 International Units/liter
PCT [2, 4]: 0.07%
MON = monocytes [2, 4]: 6e+07 L⁻¹
LYM = lymphocytes [2, 4]: 1.06e+09 L⁻¹
CA++ = calcium ([2]; horse Moniq, race day 3, treated days 1 and 2, day 1 value 2.98): 2.98 mmol/L
K+ = potassium [2, 4]: 4.3 mmol/L
MON % = monocytes percentage [2, 4]: 0.6%
GLU = glucose [2, 4]: 6.1 mmol/L
BUN = blood urea nitrogen ([2]; horse Moniq, race day 3, treated days 1 and 2, day 1 value 8): 9 mmol/L
RBC = red blood cell count [2, 4]: 9.21e+12 L⁻¹
GRA = granulocytes [2, 4]: 7.55e+09 L⁻¹
GGT = gamma glutamiel transferase ([2]; horse Moniq, race day 3, treated days 1 and 2, day 1 value 12): 11 Units/liter
WBC = white blood cell count [2, 4]: 9.56e+09 L⁻¹
LY % = lymphocytes percentage [2, 4]: 20.5%
MCH = mean corpuscular hemoglobin [2, 4]: 14.7 pg
HB = hemoglobin [2, 4]: 17.0 d/deciliter
RDWc [2, 4]: 22.2%
PDW [2, 4]: 37.2
ALB = albumin ([2]; horse Moniq, race day 3, treated days 1 and 2, day 1 value 36): 34 gram/liter
TBIL = total biliruben [2, 4]: 58 µmol/L
MCV = mean corpuscular volume [2, 4]: 37 femtoliter
MCHC = mean corpuscular hemoglobin concentration [2, 4]: 39.6 gram/deciliter
GLOB = globulin [2, 4]: 40 gram/liter
TP = total protein [2, 4]: 75 gram/liter
GR % = granulocytes percentage [2, 4]: 78.8%
PLT = platelets [2, 4]: 1.27e+11 L⁻¹
CRE = creatinine ([2]; horse Moniq, race day 3, treated days 1 and 2, day 1 value 96): 106 µmol/L
Na+ = sodium [2, 4]: 137 mmol/L
AST = aspertate amino transferase ([2]; horse Moniq, race day 3, treated days 1 and 2, day 1 value 468): 564 Units/liter
CK = creatine kinase ([2]; horse Moniq, race day 3, treated days 1 and 2, day 1 value 3873): 706 International Units/liter
ALB = albumin [2, 5]: 32 gram/liter
AST = aspertate amino transferase [2, 5]: 379 Units/liter
BUN = blood urea nitrogen [2, 5]: 9 mmol/L
CA++ = calcium [2, 5]: 3.13 mmol/L
CK = creatine kinase [2, 5]: 1378 International Units/liter
CRE = creatinine [2, 5]: 129 µmol/L
GGT = gamma glutamiel transferase [2, 5]: 19 Units/liter
